Measured values: patent US20070041904A1, “Peptides whose uptake by cells is controllable” (priority 2003, published 2007)

Experiments:
[1] = tested on: human squamous cell carcinoma specimens; experiment: Staining of freshly resected squamous cell carcinoma slices
Protocol: Squamous Cell Carcinoma Specimens. Human squamous cell carcinoma specimens from planned resections of neoplasms were collected postoperatively according to a protocol with institutional review board approval. The specimens were in ice-cold normal saline for 30 min during transport back to the laboratory, where they were cut by hand to ≈1-mm-thick slices, added to 1 ml of 1 μM peptide for 15 min at room temperature, rinsed five times for 2 min in 1 ml of HBSS, cryosectioned, and imaged as described above.
ACPPs Light Up Human Squamous Cell Carcinomas. Although human tumor cell lines xenografted into immunodeficient mice are popular cancer models, they fail to mimic many aspects of real human tumors. […] Contrast, defined as (tumor tissue fluorescence−autofluorescence)/(normal tissue fluorescence−autofluorescence), was almost eight in this example. […]
Images from tumor tissue treated with cleavable peptide are much clearer than are images from similar tumor tissue treated with “scrambled” uncleavable peptides and are much clearer than images from normal tongue tissue treated with cleavable peptide. […] Sections were taken for fluorescence microscopy using a low-power objective, and tissue type was verified by staining tissue. […]

[2] = tested on: Jurkat cells; experiment: 99mTc-labeled ACPP uptake into Jurkat cells, gamma counting; format: cell-based, human; settings: for increase in cell-associated radioactivity after cleavage: MMP-9 cleaved vs intact
Protocol: ACPPs may be used to deliver radioactive cargo to target cells and tissues. […] Spiked with 0.25 mCi Tc label, 25 nM intact or cleaved substrate. The target Jurkat cells were incubated with the peptides for 30 min at 37° C., and then washed 3 times with HBSS (HEPES-buffered saline solution) at room temperature (RT). 20 hours later, cells were counted by Gamma counter.
Spiked (4%) with 60 μCi ^99mTc-labeled peptide, the target Jurkat cells were loaded with 2 μM intact or MMP-9-cleaved peptide at 37° C. for 30 min. Then, the cells were washed with RT HBSS 3 times, and counted (Gamma counter) 20 hours later.
The use of ACPP labeled with technetium-99m (^99mTc) as described in Example 19 can be extended for use as an imaging agent for mouse models of cancer. One obvious advantage of gamma scintigraphy as compared to fluorescent imaging is that gamma imaging reaches much deeper into tissue. As described above, various carrier-conjugated ACPPs that incorporate N-epsilon-bis(2-pyridylmethyl)lysine (DPK), a high-affinity chelator for technetium tricarbonyl, Tc(CO)3, have been prepared. […] The simplest of these compounds, (11 KDa-mPEG)-e9-XPLGLAG-r9-[DPK-^99mTc(CO)3] was first tested on isolated cultured cells. (Note: X denotes a 6-aminohexanoyl spacer, and lower case letters denote D-amino acids.) Before cleavage, the uptake of this CPP into Jurkat lymphocytes was only 1.9% of the positive control CPP, r9-[DPK-^99mTc(CO)3].

[3] = tested on: Jurkat cells; experiment: Gd-labeled ACPP uptake into Jurkat cells, ICP-MS; format: cell-based, human
Protocol: Gadolinium chloride (GdCl3) is used to add gadolinium (Gd) to provide a contrast-enhancing, PEGylated ACPP mPEG-S—CH2CONH-e9-ahx-PLGLAG-r9-K[DOTA(Gd)]-CONH2 (SEQ ID NO: 75). It will be understood that in other embodiments the ACPP need not include a PEG moiety, and may include other moieties as well. […] Jurkat cells were incubated with 8 μM of the intact or of the cleaved substrate at 37° C. for 30 min; then the cells were washed four times with RT HBSS. Gd concentration was determined by ICP-MS (inductively coupled plasma mass spectroscopy). Cleavage led to a 19-fold increase in uptake by target cells.
Three ACPPs carrying Gd^3+ were synthesized: (11-KDa-mPEG)-e9-XPLGLAG-r9-K(DOTA-Gd), Suc9-(70 KDa dextran)-e9-XPLGLAG-r9-K(DOTA-Gd), and Suc9-(70 KDa dextran)-e9-XPLGLAX-r9-K(DOTA-Gd). The first of these ACCPs was tested at 8 μM on isolated Jurkat lymphocytes. Gd^3+ uptake was measured by inductively coupled plasma mass spectroscopy. […] Thus, MMP-mediated cleavage of the test peptide increased uptake by a factor of 19-fold […].

[4] = Phage display selection, all screens
Protocol: (§1) In-vivo selections were performed by injection of phage libraries into mice either containing tumor xenografts (HT1080 cells) or mammary tumors in transgenic mice (MMTV-PyMT). Tumor tissues were removed 3-24 hrs after injection. The rescued phage were re-amplified in bacteria and reinjected into another mouse for up to 7 iterative cycles of selection. Representative phage were isolated at each round and sequenced to monitor the selection process.
(§2) In-vitro selection strategies involved screening for phage that are specifically cleaved by purified enzymes or tissue extracts associated with tumor tissue while also selecting against cleavage by enzymes and extracts associated with normal tissue. […] The inventors have employed two different in-vitro selection paradigms. In the initial selection, the 2.5×10^6 diversity M13 library was treated with the kidney proteases meprin and neprilysin for 3 hours. Ni-NTA agarose (Qiagen) was then added and allowed to bind to the phage for 5-15 minutes, then the Ni-NTA agarose carrying the phage was resuspended with MMP-9 and incubated at 37 for 2-3 hours. After removing the beads by centrifugation, phage released into the supernatant were plated with fresh bacteria. This procedure selects for phage that remain uncleaved by kidney proteases but are then released by MMP-9. This procedure was repeated for as many as six rounds with representative phage being isolated and sequenced to monitor the selection process. The same selection procedure was also performed with liver/kidney extract instead of meprin/neprilysin and tumor extract instead of MMP-9. The resulting sequences are tabulated below. The most promising peptides were chemically resynthesized with flanking e9 and r9 sequences and a C-terminal fluorescein tag. They were then assayed by tricine gel electrophoresis for cleavage by tumor, liver, kidney extracts and MMP-9.

[5] = tested on: neprilysin / meprin / MMP-9; experiment: In-vitro phage selection, Nep/Mep/MMP-9
Protocol: as §2

[6] = tested on: furin; experiment: Furin inhibition assay; format: biochemical
furin, sequence (P09958 108-576 limits assumed): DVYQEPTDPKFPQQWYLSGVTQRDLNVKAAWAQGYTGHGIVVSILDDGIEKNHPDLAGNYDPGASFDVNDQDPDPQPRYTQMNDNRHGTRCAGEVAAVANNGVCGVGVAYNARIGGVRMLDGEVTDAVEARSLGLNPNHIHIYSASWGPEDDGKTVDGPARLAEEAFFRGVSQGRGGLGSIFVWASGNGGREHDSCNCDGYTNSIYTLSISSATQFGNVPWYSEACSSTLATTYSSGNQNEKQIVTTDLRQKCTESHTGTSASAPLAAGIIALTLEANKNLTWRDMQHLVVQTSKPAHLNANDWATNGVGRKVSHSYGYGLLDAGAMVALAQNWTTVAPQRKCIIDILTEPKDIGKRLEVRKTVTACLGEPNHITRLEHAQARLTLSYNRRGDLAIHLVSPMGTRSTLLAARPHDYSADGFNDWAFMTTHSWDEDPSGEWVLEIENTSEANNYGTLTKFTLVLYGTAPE
Protocol: The furin assay was performed with Boc-Arg-Val-Arg-Arg-MCA substrate (Bachem) at a final concentration of 200 μM in 100 μl of 100 mM MES/NaOH, pH 7.0, containing 1 mM CaCl2. Inhibitory peptides were pre-incubated with 1 unit furin enzyme (NEB) for 30 min prior to addition of substrate. Assays were performed in triplicate by incubation at 37° C. for 4 hours in a 96-well clear-bottom black-wall Costar plate. Release of MCA was measured by excitation at 380 nm and emission at 460 nm. IC50's were determined as the concentration of inhibitor required to inhibit 50% of the emission increase at 460 nm over the no-enzyme control. […]

[7] = In-vitro phage selection, liver/kidney/tumor extracts
Protocol: as §2

[8] = tested on: MMP-2; experiment: Cleavage kinetics for MMP-2 cleavage; format: biochemical
Description: Cleavage kinetics for MMP-2 cleavage of H2N-e6-XPLGLAG-r9-Xc(Cy5)-CONH2 (where X≡aminohexanoic acid) are illustrated in FIG. 27.
Cleavage of a MMP-2 substrate ACPP is illustrated in FIG. 27.

[9] = tested on: HT1080 tumor xenografts or mammary tumors (MMTV-PyMT); experiment: In-vivo phage selection; set-up: species or system mice; settings: mouse
Protocol: as §1

[10] = tested on: HT-1080 tumors; experiment: In vivo fluorescence imaging of HT-1080 tumor xenografts; set-up: species or system nude mice; settings: mean±SE
Protocol: Xenografts in Mice. Nude mice (age, 4-6 weeks) were injected s.c. with ≈10^6 HT-1080 cells. […] Animals were then imaged at various times by using a Nikon f/1.2 camera lens in front of a cooled charge-coupled device camera (SenSys, Photometrics, Tucson, Ariz.). For longer lasting imaging studies, animals were allowed to wake up after 2 h of anesthesia and were reanesthetized at ≈4 and 6 hr for further data collection. […] After imaging was ended, animals were killed with halothane, and organs of interest were harvested and weighed. […] Cy5 fluorescence was imaged as described above.
We next tested whether ACPPs could light up protease expressing human tumor xenografts in whole mice. We chose HT-1080 tumors in the axilla of nude mice because these tumors express both MMP-2 and MMP-9 and have been used to test other MMP-2 cleavable contrast agents (22, 26). […] Anesthetized mice were injected through the tail vein with either an MMP-2 cleavable ACPP, an isomeric scrambled version verified not to be a substrate for MMP-2 or MMP-9, or an all-D-amino acid version. […] To quantitate the results, we measured the contrast index defined as (fluorescence intensity of tumor−autofluorescence)/(fluorescence of normal contralateral region−autofluorescence).

(5 kDa PEG)-eeeeeeeeeXPLGLAG-rrrrrrrrrXk(Cy5) [cleavable peptide]
contrast, relatively differentiated oral cavity_oropharynx tumors ([1]; mean±SD, two patients): 2.7±0.2
contrast, high-grade laryngeal tumors ([1]; two tumors): 6.5±3.4

(11 KDa-mPEG)-e9-XPLGLAG-r9-[DPK-^99mTc(CO)3]
increase in cell-associated radioactivity after cleavage [2]: 57 -fold
uptake after cleavage, % of positive control ([2]; after MMP-9): 107%
uptake before cleavage, % of positive control CPP ([2]; positive control r9-[DPK-99mTc(CO)3]): 1.9%

(11-KDa-mPEG)-e9-XPLGLAG-r9-K(DOTA-Gd)
increase in Gd uptake after cleavage ([3]; 8 μM): 19 -fold
Gd3+ uptake, MMP-9-cleaved peptide ([3]; 8 μM, ICP-MS): 737 µM
Gd3+ uptake, intact peptide ([3]; 8 μM, ICP-MS): 39 µM

ARKRSQ
Total # times isolated [4]: 2
# times identified in Nep/Mep/MMP-9 screen [5]: 2

Ac-r9-k-NH2 [reference compound]
IC50 ([6]; intact / uncleaved peptide): 3.4 µM

DSNAES
Total # times isolated [4]: 4
# times identified in Nep/Mep/MMP-9 screen [5]: 3
# times identified in liver/kidney/tumor screen [7]: 1

DVGTTE
Total # times isolated [4]: 5
# times identified in Nep/Mep/MMP-9 screen [5]: 5

FMEIET
Total # times isolated [4]: 3
# times identified in Nep/Mep/MMP-9 screen [5]: 3

GGHTRQ
Total # times isolated [4]: 2
# times identified in Nep/Mep/MMP-9 screen [5]: 2

GLWQGP
Total # times isolated [4]: 7
# times identified in liver/kidney/tumor screen [7]: 7

GMMYRS
Total # times isolated [4]: 4
# times identified in Nep/Mep/MMP-9 screen [5]: 1
# times identified in liver/kidney/tumor screen [7]: 3

H2N-e6-XPLGLAG-r9-Xc(Cy5)-CONH2
Km [8]: 534 µM
kcat [8]: 15.0 s⁻¹
kcat/Km [8]: 28,037 M^−1s^−1

HEVVAG
Total # times isolated [4]: 2
# times identified in Nep/Mep/MMP-9 screen [5]: 2

IDKQLE
Total # times isolated [4]: 3
# times identified in Nep/Mep/MMP-9 screen [5]: 3

INGKVT
Total # times isolated [4]: 2
# times identified in Nep/Mep/MMP-9 screen [5]: 2

ITDMAA
Total # times isolated [4]: 4
# times identified in in-vivo screen [9]: 1
# times identified in liver/kidney/tumor screen [7]: 3

LPGMMG
Total # times isolated [4]: 5
# times identified in liver/kidney/tumor screen [7]: 5

QCTGRF
Total # times isolated [4]: 6
# times identified in in-vivo screen [9]: 1
# times identified in Nep/Mep/MMP-9 screen [5]: 1
# times identified in liver/kidney/tumor screen [7]: 4

RLQLKL
Total # times isolated [4]: 12
# times identified in in-vivo screen [9]: 1
# times identified in liver/kidney/tumor screen [7]: 11

RWRTNF
Total # times isolated [4]: 4
# times identified in Nep/Mep/MMP-9 screen [5]: 4

TDLGAM
Total # times isolated [4]: 5
# times identified in liver/kidney/tumor screen [7]: 5

TSAVRT
Total # times isolated [4]: 2
# times identified in in-vivo screen [9]: 2

WRNTIA
Total # times isolated [4]: 3
# times identified in Nep/Mep/MMP-9 screen [5]: 3

WRPCES
Total # times isolated [4]: 3
# times identified in in-vivo screen [9]: 1
# times identified in Nep/Mep/MMP-9 screen [5]: 2

[11 kDa PEG]-X-e9-XPLG*LAG-r9 [cleavable ACPP]
contrast index (tumor−autofluorescence)/(normal contralateral−autofluorescence) [10]: 2.1±0.17

[11 kDaPEG]-X-e9-XLALGPG-r9 [scrambled isomer]
contrast index (tumor−autofluorescence)/(normal contralateral−autofluorescence) [10]: 1.3±0.16

[11-kDa PEG]-X-e9-Xplglag-r9-Xk(Cy5) [all-D-amino acid control]
contrast index (tumor−autofluorescence)/(normal contralateral−autofluorescence) [10]: 1.5±0.11

decanoyl-RVKR-chloromethylketone [reference compound]
IC50 ([6]; control inhibitor): 0.027 µM

e9-XPLGLAG-r9-Xk-NH2
IC50 ([6]; intact / uncleaved peptide): 27 µM

mPEG(11 kd)-S—CH2—CONH-ahx-e9-ahx-PLGLAG-r9-ahx-k-CONH2
increase in cell-associated radioactivity after cleavage [2]: 38 -fold

mPEG(11kd)-e9-XPLGLAG-r9-Xk-NH2
IC50 ([6]; intact / uncleaved peptide): > 50 µM

mPEG-S—CH2CONH-e9-ahx-PLGLAG-r9-K[DOTA(Gd)]-CONH2
increase in Gd uptake after cleavage ([3]; 8 μM): 19 -fold

r9-K(DOTA-Gd) [reference compound]
Gd3+ uptake, positive control CPP ([3]; ICP-MS): 504 µM
